Measured values reported in ChEMBL document CHEMBL4251595, “Green approach for the synthesis of thiophenyl pyrazoles and isoxazoles by adopting 1,3-dipolar cycloaddition methodology and their antimicrobial activity” (2018).
Activity calls are given as the source filed them. No cut-off for these calls is given here.

Key:
Assay type in all cases: functional
Klebsiella pneumoniae [1] = test: Antimicrobial activity against Klebsiella pneumoniae assessed as zone of inhibition at 100 ug/well after 24 hrs by agar well diffusion method; conditions: read-out: DIZ
Staphylococcus aureus [2] = test: Antimicrobial activity against Staphylococcus aureus assessed as zone of inhibition at 75 ug/well after 24 hrs by agar well diffusion method; conditions: for zone of inhibition at 75 µg/disc: read-out: DIZ
Penicillium chrysogenum [3] = test: Antifungal activity against Penicillium chrysogenum assessed as zone of inhibition at 75 ug/well after 48 hrs by agar well diffusion method; conditions: for zone of inhibition at 75 µg/disc: read-out: DIZ
Aspergillus niger [4] = test: Antifungal activity against Aspergillus niger assessed as zone of inhibition at 50 ug/well after 48 hrs by agar well diffusion method; conditions: for zone of inhibition at 50 µg/disc: read-out: DIZ
Klebsiella pneumoniae [5] = test: Antimicrobial activity against Klebsiella pneumoniae assessed as zone of inhibition at 75 ug/well after 24 hrs by agar well diffusion method; conditions: read-out: DIZ
Penicillium chrysogenum [6] = test: Antifungal activity against Penicillium chrysogenum assessed as zone of inhibition at 50 ug/well after 48 hrs by agar well diffusion method; conditions: for zone of inhibition at 50 µg/disc: read-out: DIZ
Bacillus subtilis [7] = test: Antimicrobial activity against Bacillus subtilis assessed as zone of inhibition at 100 ug/well after 24 hrs by agar well diffusion method; conditions: read-out: DIZ
Bacillus subtilis [8] = test: Antimicrobial activity against Bacillus subtilis assessed as zone of inhibition at 75 ug/well after 24 hrs by agar well diffusion method; conditions: read-out: DIZ
Bacillus subtilis [9] = test: Antimicrobial activity against Bacillus subtilis assessed as zone of inhibition at 50 ug/well after 24 hrs by agar well diffusion method; conditions: read-out: DIZ
Pseudomonas aeruginosa [10] = test: Antimicrobial activity against Pseudomonas aeruginosa assessed as zone of inhibition at 50 ug/well after 24 hrs by agar well diffusion method; conditions: for zone of inhibition at 50 µg/disc: read-out: DIZ
Pseudomonas aeruginosa [11] = test: Antimicrobial activity against Pseudomonas aeruginosa assessed as zone of inhibition at 75 ug/well after 24 hrs by agar well diffusion method; conditions: for zone of inhibition at 75 µg/disc: read-out: DIZ
Aspergillus niger [12] = test: Antifungal activity against Aspergillus niger assessed as zone of inhibition at 75 ug/well after 48 hrs by agar well diffusion method; conditions: read-out: DIZ
Staphylococcus aureus [13] = test: Antimicrobial activity against Staphylococcus aureus assessed as zone of inhibition at 100 ug/well after 24 hrs by agar well diffusion method; conditions: read-out: DIZ
Penicillium chrysogenum [14] = test: Antifungal activity against Penicillium chrysogenum assessed as zone of inhibition at 100 ug/well after 48 hrs by agar well diffusion method; conditions: read-out: DIZ
Staphylococcus aureus [15] = test: Antimicrobial activity against Staphylococcus aureus assessed as zone of inhibition at 50 ug/well after 24 hrs by agar well diffusion method; conditions: for zone of inhibition at 50 µg/disc: read-out: DIZ
Pseudomonas aeruginosa [16] = test: Antimicrobial activity against Pseudomonas aeruginosa assessed as zone of inhibition at 100 ug/well after 24 hrs by agar well diffusion method; conditions: for zone of inhibition at 100 µg/disc: read-out: DIZ
Aspergillus niger [17] = test: Antifungal activity against Aspergillus niger assessed as zone of inhibition at 100 ug/well after 48 hrs by agar well diffusion method; conditions: read-out: DIZ
Klebsiella pneumoniae [18] = test: Antimicrobial activity against Klebsiella pneumoniae assessed as zone of inhibition at 50 ug/well after 24 hrs by agar well diffusion method; conditions: read-out: DIZ

Row | Compound | zone of inhibition at 100 µg/disc (Klebsiella pneumoniae [1]) [mm] | zone of inhibition at 75 µg/disc (Staphylococcus aureus [2]) [mm] | zone of inhibition at 75 µg/disc (Penicillium chrysogenum [3]) [mm] | zone of inhibition at 50 µg/disc (Aspergillus niger [4]) [mm] | zone of inhibition at 75 µg/disc (Klebsiella pneumoniae [5]) [mm] | zone of inhibition at 50 µg/disc (Penicillium chrysogenum [6]) [mm] | zone of inhibition at 100 µg/disc (Bacillus subtilis [7]) [mm] | zone of inhibition at 75 µg/disc (Bacillus subtilis [8]) [mm] | zone of inhibition at 50 µg/disc (Bacillus subtilis [9]) [mm] | diameter of the inhibition zone (DIZ) (Pseudomonas aeruginosa [10]) | zone of inhibition at 75 µg/disc (Pseudomonas aeruginosa [11]) [mm] | zone of inhibition at 75 µg/disc (Aspergillus niger [12]) [mm] | zone of inhibition at 100 µg/disc (Staphylococcus aureus [13]) [mm] | zone of inhibition at 100 µg/disc (Penicillium chrysogenum [14]) [mm] | zone of inhibition at 50 µg/disc (Staphylococcus aureus [15]) [mm] | zone of inhibition at 100 µg/disc (Pseudomonas aeruginosa [16]) [mm] | zone of inhibition at 100 µg/disc (Aspergillus niger [17]) [mm] | zone of inhibition at 50 µg/disc (Klebsiella pneumoniae [18]) [mm] | diameter of the inhibition zone (DIZ) (Penicillium chrysogenum [6]) | diameter of the inhibition zone (DIZ) (Pseudomonas aeruginosa [11]) | further results
1 | Cc1ccc(-c2onc(-c3ccccc3)c2S(=O)(=O)NC(=O)c2cccs2)cc1 | 21 | 14 | 12 | 13 | 20 | 10 | 23 | 20 | 18 | inactive | 9 | 15 | 16 | 16 | 12 | 12 | 18 | 16 | – | – | –
2 | Cc1ccc(-c2c(S(=O)(=O)NC(=O)c3ccc(Cl)s3)c(-c3ccccc3)nn2-c2ccccc2)cc1 | 20 | 15 | 10 | 16 | 17 | – | 24 | 20 | 18 | inactive | – | 19 | 16 | 13 | 12 | 13 | 23 | 15 | inactive | inactive | –
3 | O=C(NS(=O)(=O)c1c(-c2ccccc2)noc1-c1ccccc1)c1cccs1 | 26 | 21 | 16 | 18 | 24 | 14 | 29 | 26 | 24 | – | 13 | 20 | 23 | 19 | 17 | 15 | 23 | 21 | – | – | zone of inhibition at 50 µg/disc (Pseudomonas aeruginosa [10]): 11 mm
4 | O=C(NS(=O)(=O)/C=C/c1ccccc1)c1cccs1 | 19 | 16 | 8 | 10 | 18 | – | 23 | 21 | 18 | – | 9 | 13 | 17 | 11 | 12 | 10 | 15 | 15 | inactive | – | zone of inhibition at 50 µg/disc (Pseudomonas aeruginosa [10]): 7 mm
5 | O=C(NS(=O)(=O)C1C(c2ccccc2)=NN(c2ccccc2)C1c1ccc([N+](=O)[O-])cc1)c1ccc(Cl)s1 (stereo not drawn) | 14 | – | 10 | 10 | 13 | – | 19 | 15 | 13 | inactive | – | 14 | 10 | 14 | – | – | 17 | 12 | inactive | inactive | diameter of the inhibition zone (DIZ) (Staphylococcus aureus [2]): inactive; diameter of the inhibition zone (DIZ) (Staphylococcus aureus [15]): inactive; diameter of the inhibition zone (DIZ) (Pseudomonas aeruginosa [16]): inactive
6 | O=C(NS(=O)(=O)C1C(c2ccccc2)=NN(c2ccccc2)C1c1ccc([N+](=O)[O-])cc1)c1cccs1 (stereo not drawn) | 13 | – | 9 | – | 11 | – | 17 | 14 | 12 | inactive | – | 12 | 9 | 12 | – | – | 15 | 9 | inactive | inactive | diameter of the inhibition zone (DIZ) (Staphylococcus aureus [2]): inactive; diameter of the inhibition zone (DIZ) (Aspergillus niger [4]): inactive; diameter of the inhibition zone (DIZ) (Staphylococcus aureus [15]): inactive; diameter of the inhibition zone (DIZ) (Pseudomonas aeruginosa [16]): inactive
7 | Cc1ccc(/C=C/S(=O)(=O)NC(=O)c2cccs2)cc1 | 16 | 11 | – | – | 13 | – | 18 | 15 | 13 | inactive | 7 | 8 | 12 | 10 | – | 9 | 12 | 12 | inactive | – | diameter of the inhibition zone (DIZ) (Penicillium chrysogenum [3]): inactive; diameter of the inhibition zone (DIZ) (Aspergillus niger [4]): inactive; diameter of the inhibition zone (DIZ) (Staphylococcus aureus [15]): inactive
8 | Cc1ccc(-c2onc(-c3ccccc3)c2S(=O)(=O)NC(=O)c2ccc(Cl)s2)cc1 | 24 | 17 | 16 | 18 | 22 | 14 | 25 | 23 | 21 | – | 10 | 21 | 19 | 18 | 13 | 14 | 26 | 17 | – | – | zone of inhibition at 50 µg/disc (Pseudomonas aeruginosa [10]): 8 mm
9 | O=C(NS(=O)(=O)c1c(-c2ccccc2)nn(-c2ccccc2)c1-c1ccccc1)c1ccc(Cl)s1 | 27 | 21 | 15 | 18 | 25 | 13 | 32 | 28 | 25 | – | 16 | 21 | 24 | 17 | 19 | 19 | 25 | 23 | – | – | zone of inhibition at 50 µg/disc (Pseudomonas aeruginosa [10]): 14 mm
10 | O=C(NS(=O)(=O)C1C(c2ccccc2)=NOC1c1ccc([N+](=O)[O-])cc1)c1cccs1 (stereo not drawn) | 11 | 12 | 8 | – | 10 | – | 20 | 16 | 15 | inactive | – | 10 | 15 | 10 | 11 | – | 13 | 9 | inactive | inactive | diameter of the inhibition zone (DIZ) (Aspergillus niger [4]): inactive; diameter of the inhibition zone (DIZ) (Pseudomonas aeruginosa [16]): inactive
11 | Cc1ccc(-c2c(S(=O)(=O)NC(=O)c3cccs3)c(-c3ccccc3)nn2-c2ccccc2)cc1 | 18 | 12 | 8 | 12 | 16 | – | 21 | 18 | 16 | inactive | 8 | 15 | 14 | 10 | 9 | 11 | 17 | 14 | inactive | – | –
